Measured values as given in patent US11932606B2, “Anti-cancer/anti-fibrosis compounds” (THE REGENTS OF THE UNIVERSITY OF CALIFORNIA, priority 2017, dated 2024).
Like-named read-outs stand apart in the source and are kept apart here.

Legend:
[1] = target: CSNK2A1 (CK2 alpha 1) (Homo sapiens (Human), UniProt P68400); test: CK2 alpha 1 enzymatic activity inhibition (Z'-LYTE); assay type: biochemical; settings: read-out: CK2a IC50
Experimental: CK2 Alpha 1 Enzymatic Activity Inhibition: Determination of IC50 Values for Selected Compounds
The half maximal inhibitory concentration (IC50) with respect to CK2 alpha 1 inhibition was determined for the compounds of the invention by using Z′-LYTE™ from ThermoFisher Scientific's SelectScreen™ Biochemical Kinase Profiling Service (Waltham, MA). Compounds were screened in 1% DMSO (final) in the well. For 10 point titrations, 3-fold serial dilutions were conducted from the starting concentration. The 2×CSNK2A1 (CK2 alpha 1)/Ser/Thr 11 mixture is prepared in 50 mM HEPES pH 7.5, 0.01% BRIJ-35, 10 mM MgCl2, 1 mM EGTA. The black 384-well plate (Corning Cat. #4514) were used for the assay. 100 nL of 100× test compound in 100% DMSO, 2.4 uL of kinase buffer (50 mM HEPES pH 7.5, 0.01% BRIJ-35, 10 mM MgCl2, 1 mM EGTA), 5 uL of 2×CSNK2A1 (CK2 alpha 1)/Ser/Thr 11 mixture, and 2.5 uL of 4×ATP solution were mixed and agitated for 30 seconds. Then the Kinase Reaction was incubated at room temperature for 60 minutes. The final 10 uL Kinase Reaction consisted of 0.68-25.7 ng CSNK2A1 (CK2 alpha 1) and 2 μM Ser/Thr 11 in 50 mM HEPES pH 7.5, 0.01% BRIJ-35, 10 mM MgCl2, 1 mM EGTA. After the 1 hour Kinase Reaction incubation, 5 uL of a 1:16 dilution of Development Reagent B is added. After 30 second of plate shake, the reaction plate was incubated for another 60 min at room temperature. Then the plate was read on a fluorescence plate reader (CLARIOstar, BMG Labtech, Germany) and data was analyzed using XLfit from IDBS. The dose response curve was curve fit to model number 205 (sigmoidal dose-response model).

[2] = target: HIPK2 (Homo sapiens (Human), UniProt Q9H2X6); test: HIPK2 enzymatic activity inhibition (Z'-LYTE); assay type: biochemical
Chain of HIPK2 (Q9H2X6 whole entry): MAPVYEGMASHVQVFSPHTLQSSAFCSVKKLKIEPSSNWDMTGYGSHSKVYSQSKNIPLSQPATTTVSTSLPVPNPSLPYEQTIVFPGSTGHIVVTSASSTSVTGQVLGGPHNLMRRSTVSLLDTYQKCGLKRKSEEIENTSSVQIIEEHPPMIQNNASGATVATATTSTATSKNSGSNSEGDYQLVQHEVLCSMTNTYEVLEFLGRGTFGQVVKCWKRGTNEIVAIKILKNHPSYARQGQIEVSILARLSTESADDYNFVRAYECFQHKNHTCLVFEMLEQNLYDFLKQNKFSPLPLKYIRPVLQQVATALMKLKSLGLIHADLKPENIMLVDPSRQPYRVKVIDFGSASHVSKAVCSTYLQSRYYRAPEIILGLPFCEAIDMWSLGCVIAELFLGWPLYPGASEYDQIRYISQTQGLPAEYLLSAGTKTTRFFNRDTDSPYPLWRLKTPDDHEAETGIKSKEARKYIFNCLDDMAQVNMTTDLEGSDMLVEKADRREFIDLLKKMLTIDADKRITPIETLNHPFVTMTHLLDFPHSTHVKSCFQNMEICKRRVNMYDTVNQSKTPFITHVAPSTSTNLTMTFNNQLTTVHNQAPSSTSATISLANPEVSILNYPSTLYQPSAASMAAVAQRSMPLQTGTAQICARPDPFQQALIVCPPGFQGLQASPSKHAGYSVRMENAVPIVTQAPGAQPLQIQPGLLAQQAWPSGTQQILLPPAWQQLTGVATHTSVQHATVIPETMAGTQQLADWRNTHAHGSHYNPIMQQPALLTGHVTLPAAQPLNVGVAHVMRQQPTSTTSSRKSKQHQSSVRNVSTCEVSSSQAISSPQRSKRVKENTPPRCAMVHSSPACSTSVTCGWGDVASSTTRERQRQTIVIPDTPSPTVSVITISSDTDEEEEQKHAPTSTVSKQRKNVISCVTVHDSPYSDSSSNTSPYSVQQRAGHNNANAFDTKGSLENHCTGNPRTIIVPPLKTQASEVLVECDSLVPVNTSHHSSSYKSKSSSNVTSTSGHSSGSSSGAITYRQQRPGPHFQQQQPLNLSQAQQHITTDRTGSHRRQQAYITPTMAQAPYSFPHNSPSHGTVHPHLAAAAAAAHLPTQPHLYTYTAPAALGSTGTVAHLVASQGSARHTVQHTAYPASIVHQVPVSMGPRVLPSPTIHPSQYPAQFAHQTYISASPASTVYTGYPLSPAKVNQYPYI
Experimental: HIPK2 Enzymatic Activity Inhibition: Determination of IC50 Values for Selected Compounds
The half maximal inhibitory concentration (IC50) with respect to HIPK2 inhibition was determined for the compounds of the invention by using Z′-LYTE™ from ThermoFisher Scientific's SelectScreen™ Biochemical Kinase Profiling Service (Waltham, MA). Compounds were screened in 1% DMSO (final) in the well. For 10 point titrations, 3-fold serial dilutions were conducted from the starting concentration. The 2×HIPK2/Ser/Thr 09 mixture was prepared in 50 mM HEPES pH 7.5, 0.01% BRIJ-35, 10 mM MgCl2, 1 mM EGTA.
100 nL of 100× test compound in 100% DMSO, 2.4 uL of kinase buffer (50 mM HEPES pH 7.5, 0.01% BRIJ-35, 10 mM MgCl2, 1 mM EGTA), 5 uL of 2×HIPK2/Ser/Thr 09 mixture, and 2.5 uL of 4×ATP solution were mixed and agitated for 30 seconds. Then the Kinase Reaction was incubated at room temperature for 60 minutes. […] After 30 second of plate shake, the reaction plate was incubated for another 60 min at room temperature. Then the plate was read on a fluorescence plate reader (CLARIOstar, BMG Labtech, Germany) as plate reader and data was analyzed using XLfit from IDBS.

Chain of CSNK2A1 (CK2 alpha 1) (P68400 whole entry): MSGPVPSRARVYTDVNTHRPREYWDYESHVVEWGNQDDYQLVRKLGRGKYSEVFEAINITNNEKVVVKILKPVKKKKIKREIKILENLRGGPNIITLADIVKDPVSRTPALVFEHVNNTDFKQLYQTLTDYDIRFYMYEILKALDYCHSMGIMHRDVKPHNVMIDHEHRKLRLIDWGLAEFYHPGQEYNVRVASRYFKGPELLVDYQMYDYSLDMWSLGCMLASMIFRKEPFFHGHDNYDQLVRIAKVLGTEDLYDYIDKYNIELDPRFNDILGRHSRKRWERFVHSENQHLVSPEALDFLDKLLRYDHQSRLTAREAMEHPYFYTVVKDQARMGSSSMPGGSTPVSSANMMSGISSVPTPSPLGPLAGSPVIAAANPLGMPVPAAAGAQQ

For `O=C(O)c1ccc2c(c1)cc(Br)c1ccncc12` [Compound 1, Sodium 5-bromobenzo[h]isoquinoline-8-carboxylate], the IC50 [1] was less than 300 nM and the IC50 ([2]; read-out: HIPK2 IC50) was less than 300 nM.

`O=C(O)c1ccc2c(ccc3ccncc32)c1` [Compound 2, Sodium benzo[h]isoquinoline-8-carboxylate] showed an IC50 [1] of less than 300 nM and an IC50 [2] of 1000 to 5000 nM.

For `O=C(O)c1ccc2c(c1)cc(Cl)c1ccncc12` [Compound 3, Sodium 5-chlorobenzo[h]isoquinoline-8-carboxylate], the IC50 [1] was less than 300 nM and the IC50 [2] was 300 to 1000 nM.

`O=C(O)c1ccc2c(c1)cc(Nc1cccc(Cl)c1)c1ccncc12` [Compound 4, Sodium 5-((3-chlorophenyl)amino)benzo[h]isoquinoline-8-carboxylate] gave an IC50 [1] of less than 300 nM and an IC50 [2] of 300 to 1000 nM.

With `O=C(O)c1ccc2c(c1)cc(Nc1ccc(Cl)cc1)c1ccncc12` [Compound 5, Sodium 5-((4-chlorophenyl)amino)benzo[h]isoquinoline-8-carboxylate] the IC50 [1] was less than 300 nM and the IC50 [2] was 300 to 1000 nM.

Compound `O=C(O)c1ccc2c(c1)cc(-c1ccc(Cl)cc1)c1ccncc12` [Compound 6, Sodium 5-(4-chlorophenyl)benzo[h]isoquinoline-8-carboxylate] has an IC50 [1] of 300 to 1000 nM and an IC50 [2] of 1000 to 5000 nM.

Work on `O=C(O)c1ccc2c(c1)cc(-c1cccnc1)c1ccncc12` [Compound 7, Sodium 5-(pyridin-3-yl)benzo[h]isoquinoline-8-carboxylate] yielded an IC50 [1] of less than 300 nM and an IC50 [2] of 1000 to 5000 nM.

Work on `O=C(O)c1ccc2c(c1)cc(-c1ccncc1)c1ccncc12` [Compound 8, Sodium 5-(pyridin-4-yl)benzo[h]isoquinoline-8-carboxylate] yielded an IC50 [1] of less than 300 nM and an IC50 [2] of 1000 to 5000 nM.

In the case of `Cc1cc2cc(C(=O)O)ccc2c2cnccc12` [Compound 9, Sodium 5-methylbenzo[h]isoquinoline-8-carboxylate], the IC50 [1] is reported as less than 300 nM and the IC50 [2] is reported as 300 to 1000 nM.

In the case of `Nc1ccc(-c2cc3cc(C(=O)O)ccc3c3cnccc23)cn1` [Compound 10, Sodium 5-(6-aminopyridin-3-yl)benzo[h]isoquinoline-8-carboxylate], the IC50 [1] is reported as less than 300 nM and the IC50 [2] is reported as 300 to 1000 nM.

In the case of `O=C(O)c1ccc2c(c1)cc(-c1cc[nH]n1)c1ccncc12` [Compound 11, Sodium 5-(1H-pyrazol-3-yl)benzo[h]isoquinoline-8-carboxylate], the IC50 [1] is reported as less than 300 nM and the IC50 [2] is reported as 1000 to 5000 nM.

`O=C(O)c1ccc2c(c1)cc(NC1CCCCC1)c1ccncc12` [Compound 12, Sodium 5-(cyclohexylamino)benzo[h]isoquinoline-8-carboxylate] gave an IC50 [1] of less than 300 nM and an IC50 [2] of 300 to 1000 nM.

Compound `O=C(O)c1ccc2c(c1)cc(N[C@@H]1CCCNC1)c1ccncc12` [Compound 13, (R)-5-(Piperidin-3-ylamino)benzo[h]isoquinoline-8-carboxylic acid] has an IC50 [1] of 1000 to 5000 nM and an IC50 [2] of 1000 to 5000 nM.

Compound `N[C@@H]1CCCN(c2cc3cc(C(=O)O)ccc3c3cnccc23)C1` [Compound 14, (R)-5-(3-Aminopiperidin-1-yl)benzo[h]isoquinoline-8-carboxylic acid] has an IC50 [1] of less than 300 nM and an IC50 ([2]; read-out: HIPK2 IC50) greater than 5000 nM.

For `O=C(O)c1ccc2c(c1)cc(NC1CCCC1)c1ccncc12` [Compound 15, Sodium 5-(cyclopentylamino)benzo[h]isoquinoline-8-carboxylate], the IC50 [1] was less than 300 nM and the IC50 [2] was 300 to 1000 nM.

In the case of `CC(C)CNc1cc2cc(C(=O)O)ccc2c2cnccc12` [Compound 16], the IC50 [1] is reported as less than 300 nM.

With `O=C(O)c1ccc2c(c1)cc(NC1CC1)c1ccncc12` [Compound 17, Sodium 5-(cyclopropylamino)benzo[h]isoquinoline-8-carboxylate] the IC50 [1] was less than 300 nM and the IC50 ([2]; read-out: HIPK2 IC50) was less than 300 nM.

With `O=C(O)c1ccc2c(c1)cc(NC1CCC1)c1ccncc12` [Compound 18, Sodium 5-(cyclobutylamino)benzo[h]isoquinoline-8-carboxylate] the IC50 [1] was less than 300 nM and the IC50 [2] was 300 to 1000 nM.

`CC[C@H](C)Nc1cc2cc(C(=O)O)ccc2c2cnccc12` [Compound 19, (S)-5-(sec-Butylamino)benzo[h]isoquinoline-8-carboxylic acid] gave an IC50 [1] of less than 300 nM and an IC50 [2] of 1000 to 5000 nM.

`O=C(O)c1ccc2c(c1)cc(N1CCCCC1)c1ccncc12` [Compound 20, Sodium 5-(piperidin-1-yl)benzo[h]isoquinoline-8-carboxylate] gave an IC50 [1] of less than 300 nM and an IC50 [2] of 300 to 1000 nM.

`CC(C)Nc1cc2cc(C(=O)O)ccc2c2cnccc12` [Compound 21, Sodium 5-(isopropylamino)benzo[h]isoquinoline-8-carboxylate] gave an IC50 [1] of less than 300 nM and an IC50 [2] of 300 to 1000 nM.

In the case of `CC[C@@H](C)Nc1cc2cc(C(=O)O)ccc2c2cnccc12` [Compound 22, Sodium (R)-5-(sec-butylamino)benzo[h]isoquinoline-8-carboxylate], the IC50 [1] is reported as less than 300 nM and the IC50 ([2]; read-out: HIPK2 IC50) is reported as less than 300 nM.

Compound `O=C(O)c1ccc2c(c1)cc(Br)c1ccnc(Cl)c12` [Compound 23, Sodium 5-bromo-1-chlorobenzo[h]isoquinoline-8-carboxylate] has an IC50 [1] of less than 300 nM and an IC50 [2] of 300 to 1000 nM.

In the case of `O=C(O)c1ccc2c(c1)cc(Br)c1cc(Cl)ncc12` [Compound 24, Sodium 5-bromo-3-chlorobenzo[h]isoquinoline-8-carboxylate], the IC50 [1] is reported as 1000 to 5000 nM and the IC50 ([2]; read-out: HIPK2 IC50) is reported as greater than 5000 nM.

Compound `O=C(O)c1ccc2c(ccc3ccnc(Cl)c32)c1` [Compound 25, Sodium 1-chlorobenzo[h]isoquinoline-8-carboxylate] has an IC50 [1] of less than 300 nM and an IC50 [2] of 1000 to 5000 nM.

For `O=C(O)c1ccc2c(c1)cc([N+](=O)[O-])c1ccncc12` [Compound 26, Sodium 5-nitrobenzo[h]isoquinoline-8-carboxylate], the IC50 [1] was less than 300 nM and the IC50 [2] was 300 to 1000 nM.

For `N#Cc1cc2cc(C(=O)O)ccc2c2cnccc12` [Compound 27, Sodium 5-cyanobenzo[h]isoquinoline-8-carboxylate], the IC50 [1] was less than 300 nM and the IC50 [2] was 300 to 1000 nM.

Work on `O=C(O)c1ccc2c(c1)cc(C1CC1)c1ccncc12` [Compound 28, Sodium 5-cyclopropylbenzo[h]isoquinoline-8-carboxylate] yielded an IC50 [1] of less than 300 nM and an IC50 [2] of 300 to 1000 nM.

`CN(C)c1nccc2c(Br)cc3cc(C(=O)O)ccc3c12` [Compound 30, Sodium 5-bromo-1-(dimethylamino)benzo[h]isoquinoline-8-carboxylate] showed an IC50 [1] of 1000 to 5000 nM and an IC50 [2] of 1000 to 5000 nM.

For `O=C(O)c1ccc2c(c1)cc(Br)c1ccnc(NC3CC3)c12` [Compound 31, Sodium 5-bromo-1-(cyclopropylamino)benzo[h]isoquinoline-8-carboxylate], the IC50 [1] was 1000 to 5000 nM and the IC50 [2] was 1000 to 5000 nM.

In the case of `CNc1nccc2c(Br)cc3cc(C(=O)O)ccc3c12` [Compound 32, Sodium 5-bromo-1-(methylamino)benzo[h]isoquinoline-8-carboxylate], the IC50 [1] is reported as 300 to 1000 nM and the IC50 [2] is reported as 1000 to 5000 nM.

Work on `NC(=O)c1ccc2c(c1)cc(Br)c1ccnc(N)c12` [Compound 33, 1-Amino-5-bromobenzo[h]isoquinoline-8-carboxamide] yielded an IC50 [1] of 1000 to 5000 nM and an IC50 [2] of 300 to 1000 nM.

`COc1nccc2c(Br)cc3cc(C(=O)O)ccc3c12` [Compound 34, Sodium 5-bromo-1-methoxybenzo[h]isoquinoline-8-carboxylate] showed an IC50 [1] of 300 to 1000 nM and an IC50 [2] of 1000 to 5000 nM.

Compound `Nc1nccc2cc(Br)c3cc(C(=O)O)ccc3c12` [Compound 35, Sodium 1-amino-6-bromobenzo[h]isoquinoline-8-carboxylate] has an IC50 [1] of 300 to 1000 nM and an IC50 ([2]; read-out: HIPK2 IC50) of less than 300 nM.
